The source of these data is paper PMC8596838, “Xylose‐Configured Cyclophellitols as Selective Inhibitors for Glucocerebrosidase” (Chembiochem, 2021).

In this experiment the target is T1, GBA (Homo sapiens, UniProt P04062).
T1 construct: HEK293T cells that contain endogenous GBA; endogenous in cells; host or cells: HEK293T (ATCC CRL-3216) overexpressing GBA2 and GBA3
T1 sequence (P04062 40-536): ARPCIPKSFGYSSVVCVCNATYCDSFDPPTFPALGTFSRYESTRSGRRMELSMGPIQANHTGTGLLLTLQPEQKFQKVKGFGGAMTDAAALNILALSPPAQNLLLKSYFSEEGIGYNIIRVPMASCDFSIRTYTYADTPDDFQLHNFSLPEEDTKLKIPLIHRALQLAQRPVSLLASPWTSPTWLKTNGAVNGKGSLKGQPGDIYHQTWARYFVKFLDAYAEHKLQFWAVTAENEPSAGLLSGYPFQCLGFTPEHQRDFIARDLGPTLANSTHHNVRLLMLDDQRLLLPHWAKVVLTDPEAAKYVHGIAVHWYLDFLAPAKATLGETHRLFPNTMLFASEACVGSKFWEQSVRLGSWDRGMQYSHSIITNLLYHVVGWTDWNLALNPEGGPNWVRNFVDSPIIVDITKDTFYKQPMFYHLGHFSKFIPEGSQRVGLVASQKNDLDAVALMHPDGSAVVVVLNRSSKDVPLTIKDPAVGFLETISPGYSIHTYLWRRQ
Nature of the experiment: Inhibition in intact HEK293T cells (24 h), read out by cABPP with ABP 10, GBA. Type of experiment: cell-based. The settings on record: for IC50: 24 h treatment, cABPP quantification, n=3. From the text: We next examined the activity of 1 and 2 towards the three human β‐D‐glucosidase in intact HEK293T cells. […] It is noted that the GBA‐selectivity of both compounds is much improved in intact cells than in the in vitro system (Figure 2 and Table 1). This is especially true for compound 1, where an impressive 4‐logs of selectivity window is observed.
Figure 5 Inhibitory effect of β‐D‐xylo‐configured cyclophellitol 1 and cyclophellitol aziridine 2 on β‐glucosidases in intact HEK293T cells expressing GBA, GBA2 and GBA3. (A) Representative gel images of cABPP where cells were treated for 24 h with indicated inhibitor. Lysates were then prepared and labeled with fluorescent ABP 10. Fluorescently labeled proteins were visualized after SDS‐PAGE (1 set from n=3 replicates). (B) IC50 curves determined by cABPP labeling results. (C) Apparent IC50 values towards β‐glucosidases in intact HEK293T cells producing GBA, GBA2 and GBA3 were determined by the fluorescence quantification based on cABPP SDS‐PAGE results.
ABP labeling procedure: Glycosidases were labeled with excess fluorescent ABPs at optimum conditions. […] After ABP incubation, proteins were denatured by boiling the samples with 5× Laemmli buffer (50 % (v/v) 1 M Tris‐HCl, pH 6.8, 50 % (v/v) 100 % glycerol, 10 % (w/v) DTT, 10 % (w/v) SDS, 0.01 % (w/v) bromophenol blue) for 5 min at 98 °C, and separated by electrophoresis on 10 % (w/v) SDS‐PAGE gels running continuously at 90 V. Wet slab‐gels were scanned on fluorescence using the Typhoon FLA 9500 (GE Healthcare) at λEX 473 nm and λEM≥510 nm for green fluorescent ABP 8; and at λEX 635 nm and λEM≥665 nm for ABP 6, 9 and 10. ABP‐emitted fluorescence was quantified using ImageQuant software (GE Healthcare, Chicago, IL, USA) and curve‐fitted using Prism 8.0 (GraphPad Software). After fluorescence scanning, SDS‐PAGE gels were stained for total protein with Coomassie G250 and scanned on a ChemiDoc MP imager (Bio‐Rad, Hercules, CA, USA).[25] […]

One may read the IC50 as the midpoint of a concentration-inhibition curve. For `O[C@@H]1[C@@H](O)[C@H](O)C[C@H]2O[C@@H]12` [compound 1, xylo‐cyclophellitol], it took 5.71 nM to reach half-maximal inhibition (IC50). Further, under “24 h”, the “selectivity window for GBA in intact cells” value was 4 logs. For `O[C@@H]1[C@@H](O)[C@H](O)C[C@H]2N[C@@H]12` [compound 2, β‐D‐xylo‐Cyclophellitol aziridine], the IC50 was found to be 42.2 nM.
